Measurements as given in ChEMBL document CHEMBL3232825 (J Med Chem, 2014).
In brackets after ≈: the same amount, converted by molar mass.

Assays:
[1] = target: T1, Heat shock protein 75 kDa, mitochondrial (Homo sapiens, UniProt Q12931)
T1 sequence (Q12931 whole entry): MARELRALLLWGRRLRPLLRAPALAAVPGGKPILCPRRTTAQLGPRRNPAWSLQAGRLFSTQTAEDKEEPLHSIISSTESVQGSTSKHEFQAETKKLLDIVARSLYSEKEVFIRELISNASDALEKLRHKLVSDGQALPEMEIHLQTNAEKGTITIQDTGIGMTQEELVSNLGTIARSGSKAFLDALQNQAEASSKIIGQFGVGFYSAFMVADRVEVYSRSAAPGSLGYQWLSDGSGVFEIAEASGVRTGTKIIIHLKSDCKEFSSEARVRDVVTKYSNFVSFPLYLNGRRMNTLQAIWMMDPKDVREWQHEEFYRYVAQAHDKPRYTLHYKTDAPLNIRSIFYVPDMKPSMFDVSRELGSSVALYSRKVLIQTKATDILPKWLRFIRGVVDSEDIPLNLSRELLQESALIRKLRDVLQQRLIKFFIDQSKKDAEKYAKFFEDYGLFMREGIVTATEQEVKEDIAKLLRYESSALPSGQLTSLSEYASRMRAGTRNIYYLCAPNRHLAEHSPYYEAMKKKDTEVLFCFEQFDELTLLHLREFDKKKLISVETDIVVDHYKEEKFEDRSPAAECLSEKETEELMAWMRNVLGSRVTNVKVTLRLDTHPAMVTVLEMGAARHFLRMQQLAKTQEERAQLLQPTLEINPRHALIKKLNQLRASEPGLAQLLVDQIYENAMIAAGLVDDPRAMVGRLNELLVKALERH

Endoplasmin = Endoplasmin (Homo sapiens, UniProt P14625)
[2] = target: T2, Heat shock protein HSP 90-beta (Homo sapiens, UniProt P08238)
[3] = target: T2, Heat shock protein HSP 90-beta; remark: listed apart in the source
in vivo [4] = details: Sprague-Dawley, rat, plasma, sc, 10 mg/kg
in vivo [5] = details: Sprague-Dawley, rat, iv, 1 mg/kg
in vivo [6] = details: Sprague-Dawley, rat, iv, 1 mg/kg; remark: listed apart in the source
in vivo [7] = details: Sprague-Dawley, rat, plasma, iv, 1 mg/kg
in vivo [8] = details: Sprague-Dawley, rat, iv, 1 mg/kg; remark: listed apart in the source
in vivo [9] = details: Sprague-Dawley, rat, brain and plasma, sc, 10 mg/kg
in vivo [10] = details: Sprague-Dawley, rat, sc, 10 mg/kg
[11] = Aqueous solubility of the compound at pH 7.4; assay type: physicochemical

Chain of Endoplasmin (P14625 whole entry): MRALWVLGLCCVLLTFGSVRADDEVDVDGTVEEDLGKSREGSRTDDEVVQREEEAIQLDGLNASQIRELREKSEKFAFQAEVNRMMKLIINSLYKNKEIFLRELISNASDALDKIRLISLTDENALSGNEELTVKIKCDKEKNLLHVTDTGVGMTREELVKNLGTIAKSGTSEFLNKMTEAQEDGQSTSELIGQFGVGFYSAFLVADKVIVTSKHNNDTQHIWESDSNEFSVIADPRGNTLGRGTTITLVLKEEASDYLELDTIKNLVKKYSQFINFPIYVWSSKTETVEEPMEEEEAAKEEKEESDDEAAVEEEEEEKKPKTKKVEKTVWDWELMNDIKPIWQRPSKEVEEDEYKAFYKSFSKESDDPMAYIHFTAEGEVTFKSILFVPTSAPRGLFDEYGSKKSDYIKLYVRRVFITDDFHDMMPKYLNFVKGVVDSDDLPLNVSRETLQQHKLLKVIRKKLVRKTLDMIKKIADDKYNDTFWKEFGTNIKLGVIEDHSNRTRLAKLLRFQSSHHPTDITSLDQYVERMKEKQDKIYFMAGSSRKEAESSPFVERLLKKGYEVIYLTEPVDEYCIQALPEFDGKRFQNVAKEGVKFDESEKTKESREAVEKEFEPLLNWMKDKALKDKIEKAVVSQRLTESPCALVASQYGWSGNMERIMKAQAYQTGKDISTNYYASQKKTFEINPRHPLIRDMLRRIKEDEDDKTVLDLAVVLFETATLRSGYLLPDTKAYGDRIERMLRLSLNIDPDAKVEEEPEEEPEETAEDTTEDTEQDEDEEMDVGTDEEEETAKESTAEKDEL
T2 sequence (P08238 whole entry): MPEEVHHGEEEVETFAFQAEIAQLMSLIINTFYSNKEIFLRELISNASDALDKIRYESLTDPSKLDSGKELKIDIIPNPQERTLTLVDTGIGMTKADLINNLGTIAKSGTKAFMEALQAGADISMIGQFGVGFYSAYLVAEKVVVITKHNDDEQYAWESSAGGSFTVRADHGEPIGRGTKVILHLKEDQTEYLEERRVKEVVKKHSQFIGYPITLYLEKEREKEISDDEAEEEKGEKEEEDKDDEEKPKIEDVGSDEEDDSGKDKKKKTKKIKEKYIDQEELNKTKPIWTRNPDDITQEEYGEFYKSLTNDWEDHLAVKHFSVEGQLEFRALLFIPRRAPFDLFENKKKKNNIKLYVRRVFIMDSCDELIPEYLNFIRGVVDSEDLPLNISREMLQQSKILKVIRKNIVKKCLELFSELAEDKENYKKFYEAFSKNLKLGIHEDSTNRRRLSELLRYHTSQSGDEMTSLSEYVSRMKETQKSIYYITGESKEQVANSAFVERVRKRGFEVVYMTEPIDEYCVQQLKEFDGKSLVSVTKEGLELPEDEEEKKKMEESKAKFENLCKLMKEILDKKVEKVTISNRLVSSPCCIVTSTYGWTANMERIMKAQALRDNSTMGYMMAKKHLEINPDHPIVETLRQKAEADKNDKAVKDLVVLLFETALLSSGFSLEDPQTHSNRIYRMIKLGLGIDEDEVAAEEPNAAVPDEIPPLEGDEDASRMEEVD

| Compound | Ki [1] [µM] | Ki (Endoplasmin) [µM] | IC50 [2] [µM] | Ki [3] [µM] | other results |
| --- | --- | --- | --- | --- | --- |
| CCCCc1cc(-n2cc(C)c3c2CC(C)(C)CC3=O)cc2c1C(=O)NCC2 | > 10 | > 10 | 1 | 0.056 | – |
| Cc1cn(-c2cc3c(c(CC(C)C)c2)C(=O)NCC3)c2c1C(=O)CC(C)(C)C2 | > 10 | > 10 | – | – | AUC (in vivo [4]): 3580 ng·h/mL; clearance (in vivo [5]): 25.7 mL/min/kg; half-life (in vivo [6]): 2.2 h; AUC (in vivo [7]): 640 ng·h/mL; Vd (in vivo [8]): 4.08 L/kg; Kp at 2 h (in vivo [9]): 0.5; half-life (in vivo [10]): 11.6 h |
| CC1(C)CC(=O)c2c3c(n(-c4ccc(C(N)=O)c(N[C@H]5CCOC5)c4)c2C1)CCCC3 | – | – | 0.53 | 0.04 | solubility [11]: 27 µM (≈ 11.4 µg/mL) |
| Cc1cn(-c2cc3c(c(-c4ccccc4)c2)C(=O)NCC3)c2c1C(=O)CC(C)(C)C2 | > 10 | > 10 | 0.23 | 0.015 | – |
| CN1CCc2c3c(n(-c4ccc5c(c4)CCCNC5=O)c2C1)CC(C)(C)CC3=O | > 10 | > 10 | > 10 | > 10 | – |
| Cc1cn(-c2cc3c(c(C(C)(C)C)c2)C(=O)NCC3)c2c1C(=O)CC(C)(C)C2 | > 10 | > 10 | 1.7 | 0.14 | – |
| Cc1cn(-c2cc3c(c(-c4ccc(F)cc4)c2)C(=O)NCC3)c2c1C(=O)CC(C)(C)C2 | > 10 | > 10 | 0.08 | 0.01 | – |
| CC1(C)CC(=O)c2c(n(-c3ccc(C(N)=O)cc3)c3cnccc23)C1 | > 10 | > 10 | – | > 10 | – |
| Cc1cn(-c2cc3c(c(C4CCC4)c2)C(=O)NCC3)c2c1C(=O)CC(C)(C)C2 | > 10 | > 10 | 0.195 | 0.039 | – |
| CN1CCc2c3c(n(-c4ccc(C(N)=O)c(N[C@H]5CCOC5)c4)c2C1)CC(C)(C)CC3=O | – | – | – | – | solubility [11]: > 200 µM |
| CC1(C)CC(=O)c2c(n(-c3ccc(C(N)=O)cc3)c3cccnc23)C1 | > 10 | > 10 | – | > 10 | – |
| Cc1cn(-c2cc3c(c(C4CCOCC4)c2)C(=O)NCC3)c2c1C(=O)CC(C)(C)C2 | > 10 | 2.4 | 0.019 | 0.003 | – |
| Cc1cn(-c2cc3c(c(C4CCCCC4)c2)C(=O)NCC3)c2c1C(=O)CC(C)(C)C2 | > 10 | > 10 | 0.036 | 0.005 | – |
| CN1CCc2c3c(n(-c4ccc5c(c4)CNC5=O)c2C1)CC(C)(C)CC3=O | > 10 | > 10 | > 10 | > 10 | – |
| Cc1cn(-c2cc3c(c(Cc4ccccc4)c2)C(=O)NCC3)c2c1C(=O)CC(C)(C)C2 | > 10 | > 10 | 0.48 | 0.12 | – |
| Cc1cn(-c2cc3c(c(-c4cccc(F)c4)c2)C(=O)NCC3)c2c1C(=O)CC(C)(C)C2 | > 10 | > 10 | 0.081 | 0.02 | – |
| COc1ccc(-c2cc(-n3cc(C)c4c3CC(C)(C)CC4=O)cc3c2C(=O)NCC3)cc1 | > 10 | > 10 | 0.28 | 0.04 | – |
